We go through 2 molecules from patent US20080292550A1, “Fluorinated 3'-Deoxythymidine Derivatives, a Method for Their Preparation and Their Use” (MAX-DELBRUECK-CENTRUM FUER MOLEKULARE MEDIZIN, priority 2005, published 2008).

One series has as its system B cell lymphoma. The settings on record: 0.1 MBq, B cell lymphoma mouse model; cited from earlier work.
For series [1] the following is noted: Wagner et al., Cancer Research 2003; cited from earlier work.
A further series relates to fibrosarcoma. The settings on record: about 2.5 MBq, fibrosarcoma mouse model; cited from earlier work.
The conditions of series [2]: quenched product.
The subject of a further series is melanoma. The series is described as follows: Organ activities in melanoma-bearing nude mice. An excerpt: A prognosis as to the tumor/background ratio in a tumor image can be made by means of the tumor/blood radioactivity ratio of a tracer in a tumor model.
The test system of series [3] is non-parvicellular lung tumor. The series is described as follows: Organ activities in lung tumor-bearing nude mice. The settings on record: about 0.5 MBq non-quenched tracer i.v.
Setting [4] is: about 0.5 MBq quenched tracer i.v., after 60 min.

“Also recorded” adds a separate entry of the source. Read-outs that look alike come from different tables or passages of the source.

`Cc1cn([C@H]2C[C@H]([18F])[C@@H](CO)O2)c(=O)[nH]c1=O` [^18F-FLT, 3′-^18F-fluoro-3′-deoxythymidine]: the tumor/blood radioactivity ratio entry is listed as “about 7” with B cell lymphoma and 1.8 with fibrosarcoma. For the same molecule, the “storage in the spleen of mice” value in series [1] is “Marked storage”.
Take `[N-]=[N+]=N[C@H]1C[C@H](n2cc(C([18F])[18F])c(=O)[nH]c2=O)O[C@@H]1CO` [α,α-^18F2-AZT, 5,5-^18F-difluoro-3′-deoxy-3′-azidothymidine]: in series [2] (serum at room temperature (21° C.)), the stability in serum entry is “A similar result”. Besides, in series [2] (serum in an incubator at 37° C.), the stability in serum result was “markedly improved stability”. Moreover, in the series with melanoma (setting [4]), the tumor/blood radioactivity ratio was 3.2 and the tumor/organ radioactivity ratios entry is listed as “high”. In the series on melanoma (about 0.5 MBq quenched tracer i.v., compared with non-quenched product), the “storage of 18F in bone” value is reported as “lower”. In the series on melanoma (melanoma mouse model), the “PET imaging of tumor” value is recorded as “allows PET imaging of melanoma in a mouse model”. For the same molecule, the “passage of the blood-brain barrier” value in the series on melanoma (mouse animal experiments) is given as “passes the blood-brain barrier; also recorded: capable of passing the blood-brain barrier”. Besides, in the series on melanoma (mouse model, lung tumor and melanoma (summary)), the storage in tumor result is “stored in lung tumor and in melanoma”. Moreover, under “isotonic NaCl solution at 21° C., over 4 hours, quenched with triethylamine”, the “increase of the fluoride concentration” value was “scarcely any increase”. In addition, the “stability in isotonic NaCl solution” value (isotonic NaCl solution, room temperature, before quenching step) is recorded as “stable”. Moreover, under “isotonic NaCl solution, room temperature, within 1 hour, before quenching step”, the “increase of the F ion concentration” value was 3 to 4.5%. Further, the “absorption of 18F in bone tissue” value in series [3] (30 and 60 min) is “particularly high”. In series [3] (organ activities after 30 min and 60 min), the “storage of activity in organs” value was “activity was stored in the tumor, in the spleen and in the colon”.
